Reference: publication PMC5529018, “Discovery of novel brain permeable and G protein-biased beta-1 adrenergic receptor partial agonists for the treatment of neurocognitive disorders” (PLoS ONE, 2017)

How the values were obtained:
[1] = system: LPS-induced TNFα production in primary microglia; experiment: In vitro primary microglia TNFα assay; format: cell-based, Sprague Dawley rat; conditions: Rattus norvegicus, 10 μM compound, LPS 10 ng/ml, 4 hrs, ELISA, read-out: inhibition of LPS-induced TNFα production
Text: Mixed glial cells were obtained from the cerebral cortex of Sprague Dawley rat pups at postnatal days 1–3. Briefly, neonates were euthanized by decapitation and their brain tissues were collected for cortex isolation. The isolated cortex was then trypsinized, triturated, and placed into tissue culture flasks in DMEM supplemented with 10% fetal bovine serum and 1% Penicillin/Streptomycin. After 10 days in vitro, microglia were harvested by gentle shaking of the growth flask, plated in a 96 well plate at a density of 30,000 cells/well, and incubated at 37°C overnight.

5-HT 2B = 5-HT 2B (Homo sapiens, UniProt P41595); experiment: Radioligand binding 5-HT 2B; conditions: S2 Table; hot ligand [3H]LSD; read-out: Binding Affinity Ki
ADRB3 = ADRB3 (Homo sapiens, UniProt P13945); experiment: Radioligand binding ADRB3; conditions: S2 Table; hot ligand [3H]CGP12177; read-out: Binding Affinity Ki
ADR - Alpha 2A = ADR - Alpha 2A (Homo sapiens, UniProt P08913); experiment: Radioligand binding ADR Alpha 2A; conditions: S2 Table; hot ligand [3H] Rauwolscine; read-out: Binding Affinity Ki
5-HT 2C = 5-HT 2C (Homo sapiens, UniProt P28335); experiment: Radioligand binding 5-HT 2C; conditions: S2 Table; hot ligand [3H]Mesulergine; read-out: Binding Affinity Ki
ADR - Alpha 2C = ADR - Alpha 2C (Homo sapiens, UniProt P18825); experiment: Radioligand binding ADR Alpha 2C; conditions: S2 Table; hot ligand [3H] Rauwolscine; read-out: Binding Affinity Ki
ADR - Alpha 1D = ADR - Alpha 1D (Homo sapiens, UniProt P25100); experiment: Radioligand binding ADR Alpha 1D; conditions: S2 Table; hot ligand [3H] Prazosin; read-out: Binding Affinity Ki
ADR- Alpha 1B = ADR- Alpha 1B (Homo sapiens, UniProt P35368); experiment: Radioligand binding ADR Alpha 1B; conditions: S2 Table; hot ligand [3H] Prazosin; read-out: Binding Affinity Ki
Sequence of ADR- Alpha 1B (P35368 whole entry): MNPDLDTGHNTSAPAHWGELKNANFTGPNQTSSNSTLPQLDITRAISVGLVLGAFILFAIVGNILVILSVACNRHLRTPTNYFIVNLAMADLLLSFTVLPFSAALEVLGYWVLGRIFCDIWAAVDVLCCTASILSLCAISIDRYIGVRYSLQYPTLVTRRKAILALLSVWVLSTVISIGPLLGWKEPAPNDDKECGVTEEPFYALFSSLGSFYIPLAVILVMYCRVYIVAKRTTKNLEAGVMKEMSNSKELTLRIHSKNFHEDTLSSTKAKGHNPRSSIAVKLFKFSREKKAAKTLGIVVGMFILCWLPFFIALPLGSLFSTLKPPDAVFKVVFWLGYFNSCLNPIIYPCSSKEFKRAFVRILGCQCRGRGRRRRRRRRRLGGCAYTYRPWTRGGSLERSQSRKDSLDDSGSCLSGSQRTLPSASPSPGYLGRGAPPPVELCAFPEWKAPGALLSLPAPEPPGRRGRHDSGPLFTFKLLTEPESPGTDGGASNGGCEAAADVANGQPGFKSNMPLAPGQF

Sequence of ADRB3 (P13945 whole entry): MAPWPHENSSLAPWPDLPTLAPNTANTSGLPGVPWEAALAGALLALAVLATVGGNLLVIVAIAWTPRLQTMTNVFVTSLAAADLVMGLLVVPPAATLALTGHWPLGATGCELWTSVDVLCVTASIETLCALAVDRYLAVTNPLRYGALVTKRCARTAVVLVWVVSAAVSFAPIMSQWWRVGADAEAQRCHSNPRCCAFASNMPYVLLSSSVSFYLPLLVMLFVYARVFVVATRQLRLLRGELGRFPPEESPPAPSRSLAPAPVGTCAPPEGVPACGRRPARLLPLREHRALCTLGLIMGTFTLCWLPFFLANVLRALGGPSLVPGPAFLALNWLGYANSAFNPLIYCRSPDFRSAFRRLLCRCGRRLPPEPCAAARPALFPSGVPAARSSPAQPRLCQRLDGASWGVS
Sequence of ADR - Alpha 1D (P25100 whole entry): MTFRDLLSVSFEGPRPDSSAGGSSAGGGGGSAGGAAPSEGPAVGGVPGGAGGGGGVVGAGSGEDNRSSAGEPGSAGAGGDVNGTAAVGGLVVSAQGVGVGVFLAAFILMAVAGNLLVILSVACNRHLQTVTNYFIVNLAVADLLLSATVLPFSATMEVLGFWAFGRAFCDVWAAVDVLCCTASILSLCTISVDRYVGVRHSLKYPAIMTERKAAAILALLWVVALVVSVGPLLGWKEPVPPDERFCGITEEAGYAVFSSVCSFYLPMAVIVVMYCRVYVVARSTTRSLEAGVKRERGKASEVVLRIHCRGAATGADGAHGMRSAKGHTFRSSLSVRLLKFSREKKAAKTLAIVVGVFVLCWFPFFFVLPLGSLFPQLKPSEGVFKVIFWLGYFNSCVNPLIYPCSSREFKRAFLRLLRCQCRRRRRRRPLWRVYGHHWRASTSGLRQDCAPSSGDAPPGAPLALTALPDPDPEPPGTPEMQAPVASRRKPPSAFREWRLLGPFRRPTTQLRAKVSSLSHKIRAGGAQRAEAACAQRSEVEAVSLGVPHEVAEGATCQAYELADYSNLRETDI
Sequence of ADR - Alpha 2A (P08913 whole entry): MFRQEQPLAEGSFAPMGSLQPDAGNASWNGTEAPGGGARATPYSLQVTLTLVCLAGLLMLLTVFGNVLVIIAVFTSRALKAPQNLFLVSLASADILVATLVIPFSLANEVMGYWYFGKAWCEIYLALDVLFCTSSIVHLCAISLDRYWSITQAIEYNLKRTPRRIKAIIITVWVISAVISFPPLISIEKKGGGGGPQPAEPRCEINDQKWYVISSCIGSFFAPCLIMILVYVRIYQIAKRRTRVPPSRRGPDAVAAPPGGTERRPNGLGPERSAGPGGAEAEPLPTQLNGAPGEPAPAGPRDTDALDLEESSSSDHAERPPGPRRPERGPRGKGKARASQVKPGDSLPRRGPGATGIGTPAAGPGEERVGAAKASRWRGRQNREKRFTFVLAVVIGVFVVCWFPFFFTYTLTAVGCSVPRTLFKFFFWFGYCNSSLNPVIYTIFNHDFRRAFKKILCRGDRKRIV
Sequence of 5-HT 2C (P28335 33-458, species assumed): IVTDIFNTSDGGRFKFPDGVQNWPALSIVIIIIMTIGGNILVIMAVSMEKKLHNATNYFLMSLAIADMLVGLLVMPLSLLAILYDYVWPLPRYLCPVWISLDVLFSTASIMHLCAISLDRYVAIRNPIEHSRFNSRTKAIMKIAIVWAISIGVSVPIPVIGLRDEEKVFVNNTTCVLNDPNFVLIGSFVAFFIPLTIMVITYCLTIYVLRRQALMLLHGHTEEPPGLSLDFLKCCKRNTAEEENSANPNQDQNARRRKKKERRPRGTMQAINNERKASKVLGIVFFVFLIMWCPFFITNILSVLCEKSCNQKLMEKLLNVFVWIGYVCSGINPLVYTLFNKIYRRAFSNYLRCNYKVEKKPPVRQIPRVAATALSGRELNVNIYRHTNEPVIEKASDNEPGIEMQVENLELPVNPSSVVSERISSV
Sequence of ADR - Alpha 2C (P18825 whole entry): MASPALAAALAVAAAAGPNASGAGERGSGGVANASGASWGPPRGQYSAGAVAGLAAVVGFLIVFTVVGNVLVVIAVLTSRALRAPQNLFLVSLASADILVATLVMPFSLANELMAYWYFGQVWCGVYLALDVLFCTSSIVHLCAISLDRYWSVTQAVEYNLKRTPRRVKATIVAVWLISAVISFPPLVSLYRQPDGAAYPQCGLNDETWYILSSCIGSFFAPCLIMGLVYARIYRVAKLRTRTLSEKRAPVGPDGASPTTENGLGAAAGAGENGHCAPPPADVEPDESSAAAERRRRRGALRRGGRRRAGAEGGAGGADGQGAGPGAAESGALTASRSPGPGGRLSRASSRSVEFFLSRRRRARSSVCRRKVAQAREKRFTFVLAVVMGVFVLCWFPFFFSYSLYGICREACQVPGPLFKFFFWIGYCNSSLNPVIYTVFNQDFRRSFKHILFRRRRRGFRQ
Sequence of 5-HT 2B (P41595 whole entry, species assumed): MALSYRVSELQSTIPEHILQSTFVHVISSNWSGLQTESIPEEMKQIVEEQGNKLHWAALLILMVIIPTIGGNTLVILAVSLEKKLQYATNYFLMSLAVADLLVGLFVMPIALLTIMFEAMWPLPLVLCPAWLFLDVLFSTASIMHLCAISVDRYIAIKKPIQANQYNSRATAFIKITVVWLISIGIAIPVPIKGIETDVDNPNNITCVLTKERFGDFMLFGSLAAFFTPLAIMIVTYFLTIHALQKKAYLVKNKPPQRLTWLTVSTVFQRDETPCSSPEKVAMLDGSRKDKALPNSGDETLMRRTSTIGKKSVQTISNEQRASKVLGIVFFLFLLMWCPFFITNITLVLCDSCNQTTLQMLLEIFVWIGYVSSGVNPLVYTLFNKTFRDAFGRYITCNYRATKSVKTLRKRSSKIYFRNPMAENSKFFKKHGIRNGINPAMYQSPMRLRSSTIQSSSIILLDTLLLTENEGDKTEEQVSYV

`COc1ccccc1OCCNC[C@H](O)COc1ccc(O)cc1.COc1ccccc1OCCNC[C@H](O)COc1ccc(O)cc1.O=C(O)/C=C/C(=O)O` [STD-101-D1, (S)-4-(2-hydroxy-3-((2-(2-methoxyphenoxy)ethyl)amino)propoxy)phenol hemifumarate] was tested, and the inhibition at 10 µM [1] was about 50%, the Ki (5-HT 2B) was 25 nM and the Ki (ADRB3) was 485 nM. The Ki (ADR - Alpha 2A) was 1170 nM, the Ki (5-HT 2C) was 1150 nM and the Ki (ADR - Alpha 2C) was 108 nM. It also gave a Ki (ADR - Alpha 1D) of 25 nM and a Ki (ADR- Alpha 1B) of 267 nM.
